Measurements taken from patent US10604487B2, “Pyridinol derivative or pharmaceutically acceptable salt thereof, and pharmaceutical composition containing same as active ingredient” (Research Cooperation Foundation of Yeungnam University, priority 2016, dated 2020).
Read-outs that look alike come from different tables or passages of the source.

Assays:
[1] = tested on: TNF-α-induced adhesion of monocytes to intestinal epithelial cells; experiment: Inhibitory activity against TNF-α-induced adhesion of monocytes (U937) to intestinal epithelial cells (HT-29); format: cell-based, human; conditions: Homo sapiens
Procedure: HT-29 human colorectal cancer-derived epithelial cells and U937 human-derived monocytic cells were cultured in an RPMI 1640 medium containing 10% FBS and 1% penicillin/streptomycin (PS) at 37° C. under a condition of 5% CO2, and when the cells were grown to 80% or more in a culture flask, they were subcultured in a ratio of 1:3 to be used in this test. The HT-29 cells were cultured in a 24-well plate at a concentration of 2×10^5 cells/cm2, and then the medium only containing 1% FBS and 1% PS was pretreated with a test drug for 1 hour. Afterward, BCECF-loaded U937 cells by being treated with 10 μg/mL of BCECF-AM at 37° C. for 30 minutes and 10 ng/mL of TNF-α reacted with the HT-29 cells previously treated with the test drug at 37° C. for 3 hours. After the reaction, the medium was removed, and then the cells were washed with PBS twice to remove U937 cells that were not adhered. In a subsequent step, for cell lysis, 0.1% Triton X-100 (0.1 M Tris) was treated to allow a reaction at room temperature for 30 minutes, and then fluorescence was measured using a Fluostar optima microplate reader (BMG LABTECH, Germany) to quantify the cells (Carvalho et al., 1996; Thapa et al., 2008).

[2] = Cytotoxicity test (MTT), U937; format: cell-based; conditions: human, U937, 48 h; for viability at 48 h, 0.01 µM / viability at 48 h, 0.1 µM / viability at 48 h, 1 µM / viability at 48 h, 10 µM / viability at 48 h, 100 µM: U937 cells (monocytic blood cancer-derived cell line), read-out: Cell viability (% of control); for IC50 at 48 h: U937 cells
Procedure: (§1) The human colorectal cancer cell line HT-29 and the monocytic blood cancer-derived cell line U937 were cultured in a RPMI 1640 medium containing 10% FBS and 1% penicillin/streptomycin (PS) at 37° C. under a condition of 5% CO2, and when the cells used herein were grown to 80% or more, they were subcultured at a ratio of 1:3.
(§2) Each type of cells were cultured in a 96 well plate at a concentration of 1×10^5 cells/cm2, treated with a test compound by concentration in a medium only containing 1% FBS and 1% PS at 37° C. under a condition of 5% CO2 for 48 hours and reacted with 5 mg/mL of a 3-[4,5-dimethylthiazol-2-yl]-2,5-diphenyltetrazolium bromide (MTT) reagent for 4 hours, and then the medium was completely removed, the cells were treated with DMSO, formazan crystals were dissolved for 30 minutes, and then absorbance was measured at 540 nm.

[3] = Cytotoxicity test (MTT), HT-29; format: cell-based; conditions: human, HT-29, 48 h; for viability at 48 h, 0.01 µM / viability at 48 h, 0.1 µM / viability at 48 h, 1 µM / viability at 48 h, 10 µM / viability at 48 h, 100 µM: HT-29 cells (colorectal cancer cell line), read-out: Cell viability (% of control); for IC50 at 48 h: HT-29 cells, read-out: IC50 (μM), cytotoxicity
Procedure: as §1, §2

[4] = 1 μM test drug, HT-29/U937 adhesion, 10 ng/mL TNF-α, read-out: Inhibitory activity (%)

`Cc1ccc(NC(=S)Nc2nc(C)c(O)c(C)c2C)cc1` [Compound 18-5, 1-(5-hydroxy-3,4,6-trimethylpyridin-2-yl)-3-(p-tolyl)thiourea] showed an inhibition at 1 µM [1, 4] of 19.2%.

Work on `CCCCNC(=S)Nc1nc(C)c(O)c(C)c1C` [Compound 18-1, 1-butyl-3-(5-hydroxy-3,4,6-trimethylpyridin-2-yl)thiourea] yielded a viability at 48 h, 0.01 µM [2] of 95.4 ± 0.6%, a viability at 48 h, 0.1 µM [2] of 94.9 ± 1.2% and a viability at 48 h, 1 µM [2] of 92.9 ± 0.6%. The viability at 48 h, 10 µM [2] was 91 ± 0.9%, the viability at 48 h, 100 µM [2] was 55 ± 1.1% and the IC50 at 48 h [2] was > 100 µM. The inhibition at 1 µM [1, 4] was -19.9%, the viability at 48 h, 0.01 µM [3] was 93.5 ± 3.4% and the viability at 48 h, 0.1 µM [3] was 95.2 ± 1.7%. For the same molecule, the viability at 48 h, 1 µM [3] was 96.9 ± 1.4%, the viability at 48 h, 10 µM [3] was 96.5 ± 2.3% and the viability at 48 h, 100 µM [3] was 60.3 ± 0.5%. The IC50 at 48 h [3] was > 100 µM.

With `Cc1nc(OCCCc2ccccc2)c(C)c(C)c1O` [Compound 28-6, 2,4,5-Trimethyl-6-(3-phenylpropoxy)pyridin-3-ol] the inhibition at 1 µM [1, 4] was ≥ 50%.

For `CCCCOc1nc(C)c(O)c(C)c1C` [Compound 28-2, 6-butoxy-2,4,5-trimethylpyridin-3-ol], the inhibition at 1 µM [1, 4] was 48.2%.

With `COc1ccc(NC(=S)Nc2nc(C)c(O[Si](c3ccccc3)(c3ccccc3)C(C)(C)C)c(C)c2C)cc1` [Compound 17-12c, 1-(5-((tert-Butyldiphenylsilyl)oxy)-3,4,6-trimethylpyridin-2-yl)-3-(4-methoxyphenyl)thiourea] the inhibition at 1 µM [1, 4] was 16%.

With `Cc1nc(O)c(C)c(C)c1O` [Compound 28-1, 3,4,6-Trimethylpyridine-2,5-diol] the inhibition at 1 µM [1, 4] was ≥ 50%.

For `Cc1ccc(NC(=O)Nc2nc(C)c(O)c(C)c2C)cc1` [Compound 16-9, 1-(5-hydroxy-3,4,6-trimethylpyridin-2-yl)-3-(p-tolyl)urea], the inhibition at 1 µM [1, 4] was 20.1%.

`Cc1nc(OC2CCCC2)c(C)c(C)c1O` [Compound 28-5, 6-cyclopentyloxy-2,4,5-trimethylpyridin-3-ol] gave an inhibition at 1 µM [1, 4] of 28.8%.

For `COc1cccc2c1C(=O)c1c(O)c3c(c(O)c1C2=O)C[C@@](O)(C(=O)CO)C[C@@H]3O[C@H]1C[C@H](N)[C@H](O)[C@H](C)O1` [Doxorubicin, reference compound], the viability at 48 h, 0.01 µM [2] was 93.6 ± 1.8%, the viability at 48 h, 0.1 µM [2] was 91.4 ± 3.3% and the viability at 48 h, 1 µM [2] was 42.2 ± 1.3%. It also gave a viability at 48 h, 10 µM [2] of 38.3 ± 0.6%, a viability at 48 h, 100 µM [2] of 33.2 ± 1.3% and an IC50 at 48 h [2] of 0.6 µM. It also gave a viability at 48 h, 0.01 µM [3] of 69.9 ± 1.1%, a viability at 48 h, 0.1 µM [3] of 66.9 ± 3.3% and a viability at 48 h, 1 µM [3] of 58.2 ± 6.4%. For the same molecule, the viability at 48 h, 10 µM [3] was 53.2 ± 5.1%, the viability at 48 h, 100 µM [3] was 35.7 ± 2% and the IC50 at 48 h [3] was 12.9 µM.

Molecule `Cc1nc(NC(=S)Nc2ccc(Br)cc2)c(C)c(C)c1O` [Compound 18-7, 1-(4-bromophenyl)-3-(5-hydroxy-3,4,6-trimethylpyridin-2-yl)thiourea] has an inhibition at 1 µM [1, 4] of 27.8%.

`Cc1nc(NC(=O)Nc2ccc(C(C)C)cc2)c(C)c(C)c1O` [Compound 16-15, 1-(5-hydroxy-3,4,6-trimethylpyridin-2-yl)-3-(4-isopropylphenyl)urea] showed an inhibition at 1 µM [1, 4] of 11.5%.

`Cc1nc(NC(=O)Nc2ccc(Br)cc2)c(C)c(C)c1O` [Compound 16-8, 1-(4-Bromophenyl)-3-(5-hydroxy-3,4,6-trimethylpyridin-2-yl)urea] showed an inhibition at 1 µM [1, 4] of 17.2%.

In the case of `Nc1ccc(O)c(C(=O)O)c1` [Compound 5-ASA, 5-aminosalicylic acid, reference compound], the inhibition at 1 µM [1, 4] is reported as 3.8%, the inhibition at 1 µM ([1]; 1 μM, Table 8, read-out: 1 μM concentration inhibitory activity) is reported as 3.8% and the IC50 ([1]; HT-29/U937 adhesion, TNF-α-induced, read-out: IC50 (adhesion inhibition)) is reported as 18100 µM.

With `Cc1nc(NC(=O)NCc2ccccc2)c(C)c(C)c1O` [Compound 16-14, 1-benzyl-3-(5-hydroxy-3,4,6-trimethylpyridin-2-yl)urea] the inhibition at 1 µM [1, 4] was 4.9%.

Molecule `Cc1nc(OCCC(C)C)c(C)c(C)c1O` [Compound 28-4, 6-isopentyloxy-2,4,5-trimethylpyridin-3-ol] has an inhibition at 1 µM [1, 4] of 33.2%.

`Cc1nc(NC(=O)NC(=O)c2ccccc2)c(C)c(C)c1O` [Compound 16-16, N-((5-hydroxy-3,4,6-trimethylpyridin-2-yl)carbamoyl)benzamide] gave an inhibition at 1 µM [1, 4] of 34.2%.

For `COc1ccc(NC(=S)Nc2nc(C)c(O)c(C)c2C)cc1` [Compound 18-12, 1-(5-Hydroxy-3,4,6-trimethylpyridin-2-yl)-3-(4-methoxyphenyl)thiourea], the inhibition at 1 µM [1, 4] was 13.3%.

`Cc1nc(NC(=O)Nc2ccc(F)cc2)c(C)c(C)c1O` [Compound 16-7, 1-(4-Fluorophenyl)-3-(5-hydroxy-3,4,6-trimethylpyridin-2-yl)urea] gave an inhibition at 1 µM [1, 4] of 14.6%.

In the case of `Cc1nc(NC(=S)Nc2ccc(Cl)c(Cl)c2)c(C)c(C)c1O[Si](c1ccccc1)(c1ccccc1)C(C)(C)C` [Compound 17-8c, 1-(5-((tert-butyldiphenylsilyl)oxy)-3,4,6-trimethylpyridin-2-yl)-3-(3,4-dichlorophenyl)thiourea], the inhibition at 1 µM [1, 4] is reported as 18.8%.

With `Cc1nc(NC(=S)Nc2cccc(C(F)(F)F)c2)c(C)c(C)c1OCc1ccccc1` [Compound 17-9a, 1-(5-benzyloxy-3,4,6-trimethylpyridin-2-yl)-3-(3-(trifluoromethyl)phenyl)thiourea] the inhibition at 1 µM [1, 4] was 19.6%.

`COc1ccc(NC(=O)Nc2nc(C)c(O)c(C)c2C)cc1` [Compound 16-10, 1-(5-Hydroxy-3,4,6-trimethylpyridin-2-yl)-3-(4-methoxyphenyl)urea] showed an inhibition at 1 µM [1, 4] of 12.6%.

`COc1c(C)nc(NC(=S)Nc2ccc(Cl)c(Cl)c2)c(C)c1C` [Compound 17-8b, 1-(3,4-dichlorophenyl)-3-(5-methoxy-3,4,6-trimethylpyridin-2-yl)thiourea] gave an inhibition at 1 µM [1, 4] of 39.5%.

`Cc1nc(NC(=S)Nc2ccc(Cl)c(Cl)c2)c(C)c(C)c1OCc1ccccc1` [Compound 17-8a, 1-(5-benzyloxy-3,4,6-trimethylpyridin-2-yl)-3-(3,4-dichlorophenyl)thiourea] gave an inhibition at 1 µM [1, 4] of 17.3%.

Work on `Cc1nc(NC(=O)Nc2ccc(C(F)(F)F)cc2)c(C)c(C)c1O` [Compound 16-11, 1-(5-hydroxy-3,4,6-trimethylpyridin-2-yl)-3-(4-(trifluoromethyl)phenyl)urea] yielded an inhibition at 1 µM [1, 4] of 52.7%.

`CCCCCCCCOc1nc(C)c(O)c(C)c1C` [Compound 28-3, 2,4,5-Trimethyl-6-(octyloxy)pyridin-3-ol] gave an inhibition at 1 µM [1, 4] of 30.4%.

`COc1c(C)nc(NC(=S)Nc2cccc(C(F)(F)F)c2)c(C)c1C` [Compound 17-9b, 1-(5-Methoxy-3,4,6-trimethylpyridin-2-yl)-3-(3-(trifluoromethyl)phenyl)thiourea] showed an inhibition at 1 µM [1, 4] of 39%.

With `Cc1nc(NC(=O)Nc2ccc(OC(F)(F)F)cc2)c(C)c(C)c1O` [Compound 16-13, 1-(5-hydroxy-3,4,6-trimethylpyridin-2-yl)-3-(4-(trifluoromethoxy)phenyl)urea] the inhibition at 1 µM [1, 4] was 12.6%.

Work on `Cc1nc(NC(=S)Nc2cccc(C(F)(F)F)c2)c(C)c(C)c1O[Si](c1ccccc1)(c1ccccc1)C(C)(C)C` [Compound 17-9c, 1-(5-((tert-Butyldiphenylsilyl)oxy)-3,4,6-trimethylpyridin-2-yl)-3-(3-(trifluoromethyl)phenyl)thiourea] yielded an inhibition at 1 µM [1, 4] of 25.9%.

For `O=c1[nH]cc(F)c(=O)[nH]1` [5-Fluorouracil, reference compound], the viability at 48 h, 0.01 µM [2] was 93 ± 2.7%, the viability at 48 h, 0.1 µM [2] was 89.8 ± 2.7% and the viability at 48 h, 1 µM [2] was 75.7 ± 0.6%. The viability at 48 h, 10 µM [2] was 71.3 ± 1.7%, the viability at 48 h, 100 µM [2] was 59.7 ± 0.2% and the IC50 at 48 h [2] was > 100 µM. It also gave a viability at 48 h, 0.01 µM [3] of 85.5 ± 3.9%, a viability at 48 h, 0.1 µM [3] of 77.6 ± 4.6% and a viability at 48 h, 1 µM [3] of 61.9 ± 4.2%. For the same molecule, the viability at 48 h, 10 µM [3] was 48.3 ± 2%, the viability at 48 h, 100 µM [3] was 36 ± 2.5% and the IC50 at 48 h [3] was 7.6 µM.
